These results are taken from ChEMBL document CHEMBL4622960, “Design, synthesis and biological activity of novel substituted 3-benzoic acid derivatives as MtDHFR inhibitors” (Bioorg Med Chem, 2020).

For test [1], the target named is T1, Dihydrofolate reductase (Mycobacterium tuberculosis, UniProt P9WNX1).
T1 sequence (P9WNX1 whole entry): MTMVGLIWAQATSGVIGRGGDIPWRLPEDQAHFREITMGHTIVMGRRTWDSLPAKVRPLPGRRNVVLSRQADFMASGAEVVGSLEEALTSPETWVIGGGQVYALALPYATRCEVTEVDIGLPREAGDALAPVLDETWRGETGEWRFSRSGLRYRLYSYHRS
Put plainly: Inhibition of recombinant Mycobacterium tuberculosis DHFR expressed in Escherichia coli BL21(DE3) cells using DHF as substrate and NADPH as cofactor by fluorimetric analysis.

Test [2] has as its target T2, Dihydrofolate reductase (Mycobacterium tuberculosis) (UniProt P9WNX1).
T2 sequence (whole entry): T1 sequence (P9WNX1 whole entry)
The test can be described thus: Potency index, ratio of MB872 IC50 to test compound IC50 for recombinant Mycobacterium tuberculosis DHFR expressed in Escherichia coli BL21(DE3) cells using DHF as substrate and NADPH as cofactor by fluorimetric analysis.

Test [3] deals with T2, Dihydrofolate reductase (Mycobacterium tuberculosis). Put plainly: Potency index, ratio of trimethoprim IC50 to test compound IC50 for recombinant Mycobacterium tuberculosis DHFR expressed in Escherichia coli BL21(DE3) cells using DHF as substrate and NADPH as cofactor by fluorimetric analysis.
Test [4] shares this target. Put plainly: Uncompetitive inhibition of Mycobacterium tuberculosis DHFR assessed as varying Vmax using DHF as substrate and NADPH as cofactor by Michaelis-Menten analysis.
Test [5] has the same target. The test can be described thus: Uncompetitive inhibition of Mycobacterium tuberculosis DHFR assessed as constant Km using DHF as substrate and NADPH as cofactor by Michaelis-Menten analysis.

The source made the active and inactive calls. No cut-off for these calls is given here. Bounds are passed on as bounds.

As to `COC(=O)c1cccc(COc2ccc([N+](=O)[O-])cc2)c1`, in test [1], the IC50 is 35 µM. Moreover, the Ratio IC50 in test [2] was in the range of 13 to 21.
As to `COc1ccc(OCc2cccc(C(=O)O)c2)cc1`, the IC50 in test [1] amounted to 119 µM.
For `c1ccc(OCc2cccc(-c3nnn[nH]3)c2)cc1`, the IC50 in test [1] amounted to 454 µM.
Same read-out and setting: to `O=C(O)c1cccc(-n2cc(COc3ccccc3)nn2)c1` belongs over 500 µM; to `COC(=O)c1cccc(CSc2ccccc2)c1`, 76 µM.
Same read-out and setting: as for `O=C(O)c1cccc(OCc2ccccc2)c1`, the figure is 230 µM.
With `O=C(O)c1cccc(COc2ccc([N+](=O)[O-])cc2)c1`, in test [1], the concentration for half-maximal inhibition (IC50) was 23 µM. Further, the Ratio IC50 in test [2] fell in the range of 13 to 21.
Consider `O=C(O)c1ccc(COc2ccccc2)cc1`, for which the IC50 in test [1] was 442 µM.
For the compound `COC(=O)c1cccc(OCc2ccccc2)c1`, the IC50 in test [1] was over 500 µM.
As to `COC(=O)c1ccc(COc2ccc(OC)cc2)cc1`, the concentration for half-maximal inhibition (IC50) in test [1] came to 26 µM. Moreover, the Ratio IC50 in test [2] is 16.
Take `COC(=O)c1ccc(COc2ccccc2)cc1`: the half-inhibitory concentration (IC50) in test [1] is 152 µM.
On the same count and under the same terms, as for `O=C(O)c1cccc(CSc2ccccc2)c1`, the figure is 128 µM.
On to `O=C(O)c1cccc(COc2ccc(O)cc2)c1`, for which the half-inhibitory concentration (IC50) in test [1] is 36 µM. In test [2], the Ratio IC50 fell in the range of 13 to 21.
For the compound `O=C(O)c1cccc(COc2ccccc2)c1`, the concentration for half-maximal inhibition (IC50) in test [1] was at least 500 µM.
In the case of `COC(=O)c1cccc(-n2cc(COc3ccccc3)nn2)c1`, the IC50 in test [1] amounted to 81 µM.
In the case of `O=C(O)c1cccc(CNc2ccccc2)c1`, the Ratio IC50 stood at 13 in test [3] and 71 in test [2]. In test [1], the concentration for half-maximal inhibition (IC50) was 7 µM. For the same compound, the inhibition entry in test [4] and in test [5] was “Active” in each case.
As to `COc1ccc(OCc2ccc(C(=O)O)cc2)cc1`, the 50% inhibitory concentration (IC50) in test [1] came out at 31 µM. The Ratio IC50 in test [2] is 19.
Take `COC(=O)c1cccc(COc2ccccc2)c1`: the IC50 in test [1] was over 500 µM.
Same read-out and setting: to `COC(=O)c1cccc(COc2ccc(OC)cc2)c1` belongs 242 µM.
